Experimental findings from patent publication US12384770B2, “Heterocyclic compound” (Takeda Pharmaceutical Company Limited, priority 2019, dated 2025) are described below.

One assay deals with T1, HDAC6 enzyme (Homo sapiens, UniProt Q9UBN7).
T1 construct: HDAC6 enzyme prepared by transducing full length HDAC6 gene into Sf-9 insect cells; GST; purchased SignalChem; host or cells: Sf-9 insect cells
T1 sequence (Q9UBN7 1-1215): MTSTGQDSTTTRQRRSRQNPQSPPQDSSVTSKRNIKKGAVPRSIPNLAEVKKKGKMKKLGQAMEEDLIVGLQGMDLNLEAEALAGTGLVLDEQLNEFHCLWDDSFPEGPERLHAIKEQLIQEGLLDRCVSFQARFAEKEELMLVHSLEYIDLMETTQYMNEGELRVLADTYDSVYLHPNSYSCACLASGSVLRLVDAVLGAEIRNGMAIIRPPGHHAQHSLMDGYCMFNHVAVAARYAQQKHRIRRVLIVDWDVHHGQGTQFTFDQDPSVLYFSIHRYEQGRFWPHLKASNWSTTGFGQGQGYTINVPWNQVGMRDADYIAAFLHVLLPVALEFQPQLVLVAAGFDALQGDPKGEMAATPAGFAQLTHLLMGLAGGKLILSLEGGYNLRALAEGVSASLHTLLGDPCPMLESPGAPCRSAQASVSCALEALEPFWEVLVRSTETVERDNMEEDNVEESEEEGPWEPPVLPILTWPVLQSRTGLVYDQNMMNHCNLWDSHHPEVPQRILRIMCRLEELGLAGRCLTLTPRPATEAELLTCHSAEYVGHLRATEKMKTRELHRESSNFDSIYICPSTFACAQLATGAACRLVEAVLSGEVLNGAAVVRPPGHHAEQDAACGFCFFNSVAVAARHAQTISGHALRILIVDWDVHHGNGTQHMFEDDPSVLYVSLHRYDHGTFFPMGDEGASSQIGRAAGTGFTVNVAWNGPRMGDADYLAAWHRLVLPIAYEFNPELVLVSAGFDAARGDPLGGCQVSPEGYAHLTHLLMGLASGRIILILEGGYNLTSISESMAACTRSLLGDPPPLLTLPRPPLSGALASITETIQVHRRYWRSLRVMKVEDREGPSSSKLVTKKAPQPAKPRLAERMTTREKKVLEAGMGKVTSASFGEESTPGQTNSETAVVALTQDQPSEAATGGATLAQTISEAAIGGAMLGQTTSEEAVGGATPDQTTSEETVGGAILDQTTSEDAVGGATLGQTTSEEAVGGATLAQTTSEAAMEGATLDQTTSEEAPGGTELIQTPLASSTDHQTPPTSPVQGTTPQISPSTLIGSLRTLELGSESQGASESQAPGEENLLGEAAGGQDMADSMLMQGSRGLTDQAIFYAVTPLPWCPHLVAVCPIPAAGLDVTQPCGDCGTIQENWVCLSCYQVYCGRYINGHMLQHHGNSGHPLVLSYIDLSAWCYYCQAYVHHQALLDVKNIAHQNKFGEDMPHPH
Nature of the assay: HDAC6 enzyme inhibitory assay (HDAC-Glo I/II Assay kit). The note with it: wells without enzyme = 100% inhibition. Type of assay: biochemical. Summed up: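 Full-length GST-purified HDAC6 from Sf-9 cells preincubated with compound 60 min at room temperature in Tris-HCl pH 7.5 buffer with MgCl2, KCl, NaCl, glutathione, Tween-20. Substrate-developer reaction 20 min, luminescence read; no-enzyme wells set as 100% inhibition.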
Turning to `O=C1c2cc(-c3nnc(C(F)F)o3)ccc2CN1[C@H](C1CCOCC1)[C@@H](O)c1cccc(Cl)c1` (single isomer, unassigned) [Example 71, 2-[(1R*,2S*)-2-(3-chlorophenyl)-2-hydroxy-1-(oxan-4-yl)ethyl]-6-[5-(difluoromethyl)-1,3,4-oxadiazol-2-yl]-2,3-dihydro-1H-isoindol-1-one], the “HDAC6 inhibitory rate (%) (10 μM)” value came out at 101%. Still for that read-out and setting: the value for `O=C1c2cc(-c3nnc(C(F)F)o3)ccc2CN1[C@H](c1cnccn1)[C@@H](O)c1ccc(F)c(F)c1` (single isomer, unassigned) [Example 86, 6-[5-(difluoromethyl)-1,3,4-oxadiazol-2-yl]-2-[(1R*,2S*)-2-(3,4-difluorophenyl)-2-hydroxy-1-(pyrazin-2-yl)ethyl]-2,3-dihydro-1H-isoindol-1-one] was 100%.

The assay is the same for the next values; noted with them: wells without enzyme = 100% inhibition, 10 µM.
As for `O=C1c2cc(-c3nnc(C(F)F)o3)ccc2CN1[C@H](c1ncccn1)[C@@H](O)c1cccc(F)c1` (single isomer, unassigned) [Example 69, 6-[5-(difluoromethyl)-1,3,4-oxadiazol-2-yl]-2-[(1R*,2S*)-2-(3-fluorophenyl)-2-hydroxy-1-(pyrimidin-2-yl)ethyl]-2,3-dihydro-1H-isoindol-1-one], the “HDAC6 inhibitory rate (%) (10 μM)” value is given as 100%. As to `O=C1c2cc(-c3nnc(C(F)F)o3)ccc2CN1[C@H](C1CC1)[C@@H](O)c1ncccn1` (single isomer, unassigned) [Example 74, 2-[(1R*,2R*)-1-cyclopropyl-2-hydroxy-2-(pyrimidin-2-yl)ethyl]-6-[5-(difluoromethyl)-1,3,4-oxadiazol-2-yl]-2,3-dihydro-1H-isoindol-1-one], the “HDAC6 inhibitory rate (%) (10 μM)” value stood at 96%.

Consider `O=C1c2cc(-c3nnc(C(F)F)o3)ccc2CN1[C@H](c1cccc(F)n1)[C@@H](O)c1ccccn1` (single isomer, unassigned) [Example 76, 6-[5-(difluoromethyl)-1,3,4-oxadiazol-2-yl]-2-[(1R*,2R*)-1-(6-fluoropyridin-2-yl)-2-hydroxy-2-(pyridin-2-yl)ethyl]-2,3-dihydro-1H-isoindol-1-one], for which the “HDAC6 inhibitory rate (%) (10 μM)” value came out at 100%. Consider `O=C1c2cc(-c3nnc(C(F)F)o3)ccc2CN1[C@H](C1CC1)[C@@H](O)c1cccc(F)n1` (single isomer, unassigned) [Example 80, 2-[(1R*,2R*)-1-cyclopropyl-2-(6-fluoropyridin-2-yl)-2-hydroxyethyl]-6-[5-(difluoromethyl)-1,3,4-oxadiazol-2-yl]-2,3-dihydro-1H-isoindol-1-one], for which the “HDAC6 inhibitory rate (%) (10 μM)” value was 100%.

`O=C1c2cc(-c3nnc(C(F)F)o3)ccc2CN1[C@H](C1CCOCC1)[C@@H](O)c1ccc(Cl)cc1` (single isomer, unassigned) [Example 84, 2-[(1R*,2S*)-2-(4-chlorophenyl)-2-hydroxy-1-(oxan-4-yl)ethyl]-6-[5-(difluoromethyl)-1,3,4-oxadiazol-2-yl]-2,3-dihydro-1H-isoindol-1-one]: the “HDAC6 inhibitory rate (%) (10 μM)” value turned out to be 100%.

Take `O=C1c2cc(-c3nnc(C(F)F)o3)ccc2CN1[C@H](C1CCOCC1)[C@@H](O)c1ccc(F)c(F)c1` (single isomer, unassigned) [Example 88, 6-[5-(difluoromethyl)-1,3,4-oxadiazol-2-yl]-2-[(1R*,2S*)-2-(3,4-difluorophenyl)-2-hydroxy-1-(oxan-4-yl)ethyl]-2,3-dihydro-1H-isoindol-1-one]: the “HDAC6 inhibitory rate (%) (10 μM)” value is on record as 99%.

Staying with this assay, now noted: wells without enzyme = 100% inhibition, read-out: HDAC6 inhibitory rate (%) (10 μM).
In the case of `O=C1c2cc(-c3nnc(C(F)F)o3)ccc2CN1[C@H](C1CCOCC1)[C@@H](O)c1cccc(Cl)c1` (single isomer, unassigned) [Example 70, 2-[(1R*,2S*)-2-(3-chlorophenyl)-2-hydroxy-1-(oxan-4-yl)ethyl]-6-[5-(difluoromethyl)-1,3,4-oxadiazol-2-yl]-2,3-dihydro-1H-isoindol-1-one], the inhibition at 10 µM came out at 101%. Still for that read-out and setting: to `O=C1c2cc(-c3nnc(C(F)F)o3)ccc2CN1[C@H](C1CC1)[C@@H](O)c1ncccn1` (single isomer, unassigned) [Example 73, 2-[(1R*,2R*)-1-cyclopropyl-2-hydroxy-2-(pyrimidin-2-yl)ethyl]-6-[5-(difluoromethyl)-1,3,4-oxadiazol-2-yl]-2,3-dihydro-1H-isoindol-1-one] belongs 100%; to `O=C1c2cc(-c3nnc(C(F)F)o3)ccc2CN1[C@H](c1cccc(F)n1)[C@@H](O)c1ccccn1` (single isomer, unassigned) [Example 75, 6-[5-(difluoromethyl)-1,3,4-oxadiazol-2-yl]-2-[(1R*,2R*)-1-(6-fluoropyridin-2-yl)-2-hydroxy-2-(pyridin-2-yl)ethyl]-2,3-dihydro-1H-isoindol-1-one], 99%; to `O=C1c2cc(-c3nnc(C(F)F)o3)ccc2CN1[C@H](C1CC1)[C@@H](O)c1ccc(C(F)(F)F)nc1` (single isomer, unassigned) [Example 77, 2-{(1R*,2S*)-1-cyclopropyl-2-hydroxy-2-[6-(trifluoromethyl)pyridin-3-yl]ethyl}-6-[5-(difluoromethyl)-1,3,4-oxadiazol-2-yl]-2,3-dihydro-1H-isoindol-1-one], 100%. For the molecule `O=C1c2cc(-c3nnc(C(F)F)o3)ccc2CN1[C@H](C1CC1)[C@@H](O)c1cccc(F)n1` (single isomer, unassigned) [Example 79, 2-[(1R*,2R*)-1-cyclopropyl-2-(6-fluoropyridin-2-yl)-2-hydroxyethyl]-6-[5-(difluoromethyl)-1,3,4-oxadiazol-2-yl]-2,3-dihydro-1H-isoindol-1-one], the inhibition at 10 µM amounted to 99%. In the case of `O=C1c2cc(-c3nnc(C(F)F)o3)ccc2CN1[C@H](C1CCOCC1)[C@@H](O)c1ccc(Cl)cc1` (single isomer, unassigned) [Example 83, 2-[(1R*,2S*)-2-(4-chlorophenyl)-2-hydroxy-1-(oxan-4-yl)ethyl]-6-[5-(difluoromethyl)-1,3,4-oxadiazol-2-yl]-2,3-dihydro-1H-isoindol-1-one], the inhibition at 10 µM amounted to 101%. Regarding `O=C1c2cc(-c3nnc(C(F)F)o3)ccc2CN1[C@H](c1cnccn1)[C@@H](O)c1ccc(F)c(F)c1` (single isomer, unassigned) [Example 85, 6-[5-(difluoromethyl)-1,3,4-oxadiazol-2-yl]-2-[(1R*,2S*)-2-(3,4-difluorophenyl)-2-hydroxy-1-(pyrazin-2-yl)ethyl]-2,3-dihydro-1H-isoindol-1-one], the inhibition at 10 µM turned out to be 100%. For `O=C1c2cc(-c3nnc(C(F)F)o3)ccc2CN1[C@H](C1CCOCC1)[C@@H](O)c1ccc(F)c(F)c1` (single isomer, unassigned) [Example 87, 6-[5-(difluoromethyl)-1,3,4-oxadiazol-2-yl]-2-[(1R*,2S*)-2-(3,4-difluorophenyl)-2-hydroxy-1-(oxan-4-yl)ethyl]-2,3-dihydro-1H-isoindol-1-one], the inhibition at 10 µM came to 100%. Same read-out and setting: to `O=C1c2cc(-c3nnc(C(F)F)o3)ccc2CN1[C@H](c1cccc(F)n1)[C@@H](O)c1cccc(F)c1` (single isomer, unassigned) [Example 89, 6-[5-(difluoromethyl)-1,3,4-oxadiazol-2-yl]-2-[(1R*,2S*)-2-(3-fluorophenyl)-1-(6-fluoropyridin-2-yl)-2-hydroxyethyl]-2,3-dihydro-1H-isoindol-1-one] belongs 100%.
